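A five-concentration, 48-hour dose response in 96-well plates underlies each endpoint, interpolated linearly between surrounding concentrations. Abbreviation: GI50, concentration required for 50% inhibition of growth. TGI denotes the concentration required for complete inhibition of growth.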

What all share (assay): NCI tumour cell line growth inhibition, 48 h
The test system of test [1] is EKVX NSCLC.
Test [2] deals with MALME-3M melanoma.
The subject of test [3] is A549 NSCLC.
Test [4] relates to A498 renal.
Test [5] deals with LOX IMVI melanoma.
Test [6] concerns SNB-19 CNS.
The test system of test [7] is K-562 leukemia.
Test [8] relates to CCRF-CEM leukemia.
Test [9] has as its system OVCAR-3 ovarian.
Test [10] deals with HCC-2998 colon.

As to `Cc1nc(C(N)=S)sc1C(=O)C/C(=N/N)C(=O)Nc1cccc(Cl)c1C`, the TGI in test [1], in [2], in test [3], in [4], in [5] and in [6] was more than 100 µM throughout. Also, the TGI in [7], in test [8], in test [9] and in [10] was more than 100 µM in each case.
For the molecule `C=C(C=O)CCCC(C)[C@@H]1CCC23CC12CCC1[C@@]2(C)CCC(OC(C)=O)C(C)(C)C2CC(OC2OC(COC(C)=O)C(O)C(O)C2O)[C@]13C` (stereo partly drawn), the TGI was found to be 13.7 µM in test [1]; 7.17 µM in [2]; 12.5 µM in [3]; 13.3 µM in test [4]; 1.43 µM in test [5]; 13.2 µM in test [6]. In addition, the TGI came to 6.78 µM in test [7], 5 µM in test [8], 8.21 µM in test [9] and 13.9 µM in [10].
Regarding `C=C=C(C(=O)OC)S(=O)c1ccc([N+](=O)[O-])cc1[N+](=O)[O-]` (stereo not drawn), the TGI was more than 100 µM in test [1]; more than 86.2 µM in test [2]; more than 100 µM in [3]; more than 100 µM in [4]; 46.4 µM in [5]; more than 100 µM in [6]. For the same molecule, the TGI in [7] was 46.3 µM; in [8], 32.5 µM; in test [9] it was 63.1 µM; in test [10], 31.2 µM.
For `c1nnc(NCNc2nncs2)s1`, the TGI in test [1], in test [2], in test [3], in test [4], in test [5] and in [6] was more than 100 µM each time. For the same molecule, the TGI is more than 100 µM in test [7], more than 100 µM in test [8], more than 100 µM in [9] and 84.2 µM in test [10].
With `COc1cc2nc(-c3ccc(C(F)(F)F)cc3)cc(OCCCN3CCCCC3)c2cc1OC`, the GI50 in [1] was 0.803 µM; in [2], 1.26 µM; in test [3] it was 0.722 µM; in [4] it was 1.85 µM; in test [5] it was 0.162 µM; in [6], 2.82 µM. Further, the GI50 in test [7] was 0.578 µM; in [8], 1.83 µM; in [9] it was 2.44 µM; in test [10], 1.28 µM. The TGI in [1] is 14.6 µM; in [2] it was 4.03 µM; in test [3] it was 19.4 µM; in [4], 5.16 µM; in [5], 0.355 µM; in test [6], 14.6 µM. The TGI in test [7] was found to be 10.4 µM; in [8], 10.6 µM; in test [9] it was 15.4 µM; in [10] it was 5.72 µM.
Consider `NC(=O)c1ccc(C2C3=C(CCCC3=O)OC3=C2C(=O)c2ccccc2C3=O)cc1` (stereo not drawn), for which the GI50 is 0.687 µM in test [1]; 0.332 µM in test [2]; 2.28 µM in test [3]; 1.36 µM in test [4]; 0.181 µM in test [5]; 1.38 µM in test [6]. The GI50 in [7] was 0.391 µM; in test [8] it was 0.35 µM; in test [9], 0.276 µM; in test [10], 2.06 µM. The TGI in test [1] is 2.83 µM; in test [2], 0.986 µM; in [3], 4.66 µM; in test [4], 2.69 µM; in test [5] it was 1.06 µM; in test [6], 2.87 µM. The TGI in [7] was determined as 1.96 µM; in [8] it was 2.21 µM; in [9] it was 0.852 µM; in test [10], 4.29 µM.
Consider `CCOC(=O)c1cc(/C=C/C(C)=C/C(=O)OC)n(C)c1C`, for which the TGI in test [1], in test [2], in test [3], in test [4], in [5] and in test [6] was more than 100 µM each time. The TGI in [7], in test [8], in test [9] and in test [10] was more than 100 µM throughout.
Consider `Cc1c2ccc(N(C)c3ccnc(Nc4cccc(S(N)(=O)=O)c4)n3)cc2nn1C`, for which the GI50 in [1] was 11.8 µM; in test [2] it was 5.74 µM; in [3], 11.9 µM; in test [4], 1.89 µM; in test [5], 6.86 µM; in [6], more than 22.9 µM. Moreover, the GI50 in test [7] was 5.54 µM; in test [8], 9.21 µM; in test [9] it was 14.2 µM; in test [10], 18.9 µM. Also, the TGI in test [1] was more than 25 µM; in [2], 20.2 µM; in test [3] it was more than 25 µM; in [4], more than 17.9 µM; in [5], more than 25 µM; in [6] it was more than 25 µM. For the same molecule, the TGI in test [7], in test [8], in test [9] and in [10] was more than 25 µM each time.
Consider `COc1cc(Br)c(C=Nc2cccc3ccc(OS(=O)(=O)c4cccc([N+](=O)[O-])c4)cc23)cc1OC`, for which the TGI in test [1], in [2], in [3], in test [4], in test [5] and in [6] was more than 100 µM in each case. For the same molecule, the TGI in [7], in test [8], in test [9] and in test [10] was more than 100 µM throughout.
For the molecule `CCOC(=O)CC1NC(=O)CS1` (stereo not drawn), the TGI in test [1], in test [2], in test [3], in test [4], in test [6] and in test [7] was more than 100 µM in each case. Moreover, the TGI in [8], in test [9] and in test [10] was more than 100 µM throughout.
In the case of `BrC1(Br)C2/C=C\CCCCC21` (stereo not drawn), the TGI in test [1], in test [2], in test [3], in test [4], in test [5] and in [6] was more than 100 µM in each case. In addition, the TGI in [7], in test [8] and in test [10] was more than 100 µM throughout.
Consider `COC(=O)c1c(-c2ccccc2)sc(-c2cccc3ccccc23)c1C(=O)OC`, for which the TGI in [1], in test [2], in test [3], in [4], in test [5] and in test [6] was more than 100 µM each time. Further, the TGI in test [7], in test [8], in test [9] and in [10] was more than 100 µM each time.
Regarding `N#C[C@@H]1C(n2ccc(N)nc2=O)O[C@H](CO)[C@H]1O` (stereo partly drawn), the GI50 in [1] was more than 100 µM; in test [2], more than 55.4 µM; in test [3] it was 6.16 µM; in test [4], more than 100 µM; in test [5] it was 11.4 µM; in test [6] it was 10.3 µM. The GI50 in [7] is 19.6 µM; in test [8], 0.135 µM; in [9], more than 100 µM; in [10] it was more than 100 µM. The TGI in [1], in test [2], in [3], in test [4], in test [5] and in test [6] was more than 100 µM each time. Further, the TGI in test [7], in test [8], in test [9] and in test [10] was more than 100 µM throughout.
In the case of `O=[N+]([O-])c1ccc2c(c1)[O][Sn]([I])([I])[O]2`, the GI50 in [1] was more than 100 µM; in [2] it was more than 100 µM; in test [3], more than 100 µM; in test [4], more than 100 µM; in test [5], 89.4 µM; in test [6] it was more than 100 µM. The GI50 in test [7] is more than 100 µM; in [8], 42.3 µM; in test [9], more than 100 µM; in test [10], more than 100 µM. Besides, the TGI in test [1], in test [2], in test [3], in test [4], in test [5] and in test [6] was more than 100 µM throughout. In addition, the TGI in test [7], in test [8], in [9] and in [10] was more than 100 µM each time.
Take `CCOC(=O)COS(=O)(=O)C(F)(F)F`: the TGI in [1] was more than 100 µM; in [2] it was more than 100 µM; in test [3], more than 100 µM; in test [4], more than 100 µM; in test [5], 34 µM; in test [6], more than 100 µM. The TGI in [7], in [8], in [9] and in test [10] was more than 100 µM in each case.
Consider `O=C1CCC(O)=C1O`, for which the TGI in [1], in test [2], in test [3], in test [4], in test [5] and in [6] was more than 100 µM in each case. For the same molecule, the TGI in test [7], in test [8], in [9] and in [10] was more than 100 µM each time.
`O=Cc1ccc(-c2cccs2)s1`: the TGI in [1] is more than 96.6 µM; in test [2], more than 100 µM; in test [3], more than 100 µM; in [4] it was 5.21 µM; in test [5] it was more than 100 µM; in test [6], more than 100 µM. The TGI is 46.4 µM in [7], more than 100 µM in test [8], 58.1 µM in test [9] and more than 100 µM in test [10].
With `C[C-](O)O.O/C(=C\[C-](O)c1ccccc1)c1ccccc1.O/C(=C\[C-](O)c1ccccc1)c1ccccc1.[Nd+3]` (stereo not drawn), the GI50 in test [1] was 8.09 µM; in [2], 16.8 µM; in [3], 18.2 µM; in test [4], 11.7 µM; in test [5], 4.28 µM; in test [6] it was 7.83 µM. Besides, the GI50 in test [7] was 3.78 µM; in [8] it was 2.21 µM; in test [9], 0.363 µM; in [10], 2.17 µM. In addition, the TGI amounted to 55 µM in [1]; 65.9 µM in test [2]; 48.9 µM in test [3]; 43.1 µM in [4]; 17.7 µM in [5]; 50 µM in test [6]. Further, the TGI stood at 16.4 µM in test [7], 15.3 µM in [8], 27.4 µM in [9] and 20.2 µM in test [10].
As to `COc1ccc(C2CC(n3nnnc3-c3ccccc3)=NN2)cc1` (stereo not drawn), the GI50 in [1] was 1.8 µM; in test [2], 2.66 µM; in test [4] it was 18.6 µM; in test [5], 0.693 µM; in test [6], 18.1 µM; in [7], 0.486 µM. The GI50 was 0.499 µM in test [8], 3.05 µM in test [9] and 3.41 µM in test [10]. Besides, the TGI in test [1] was 36.3 µM; in test [2], 20.3 µM; in test [4], 55.1 µM; in test [5], 15.2 µM; in test [6] it was more than 100 µM; in test [7], 28.2 µM. The TGI in [8] was 51.1 µM; in [9] it was 12 µM; in test [10], 17.2 µM.
Turning to `Nc1nc(CCC(=O)Nc2cccc(C(F)(F)F)c2)cc(-c2ccc3ccccc3c2)n1`, the TGI in [1], in test [2], in [3], in test [4], in test [6] and in test [7] was more than 100 µM in each case. The TGI in test [8], in [9] and in [10] was more than 100 µM throughout.
As to `CC(C)[C@H]1C(=O)N[C@@H](CCCN=C(N)N)C(=O)NCC(=O)N[C@@H](CC(=O)O)C(=O)N[C@H](Cc2ccccc2)C(=O)N1C`, the GI50 in [2] is more than 100 µM; in test [3] it was 31.8 µM; in [4] it was 0.182 µM; in [5], 15.5 µM; in test [6], 2.66 µM; in [7], more than 100 µM. The GI50 in test [8], in [9] and in [10] was more than 100 µM throughout. Besides, the TGI in [2] is more than 100 µM; in test [3] it was more than 100 µM; in test [4] it was 1.05 µM; in test [5], more than 100 µM; in [6], more than 100 µM; in test [7], more than 100 µM. For the same molecule, the TGI in test [8], in test [9] and in [10] was more than 100 µM throughout.
